Publication PMC4879574, “Identification of Leishmania donovani Topoisomerase 1 inhibitors via intuitive scaffold hopping and bioisosteric modification of known Top 1 inhibitors” (Scientific Reports, 2016)

What was measured:
Human Top1 (HTop1) = biological target: T1, Human Top1 (HTop1) (Homo sapiens, UniProt P11387); assay: Plasmid DNA relaxation assay, HTop1; assay type: biochemical; details: averages of three experiments, read-out: HTop1 inhibition (EC50)
T1 construct: made in house; host or cells: Sf-9 insect cells infected with recombinant baculovirus (gift from Prof. J. J. Champoux)
T1 sequence (P11387 1-765): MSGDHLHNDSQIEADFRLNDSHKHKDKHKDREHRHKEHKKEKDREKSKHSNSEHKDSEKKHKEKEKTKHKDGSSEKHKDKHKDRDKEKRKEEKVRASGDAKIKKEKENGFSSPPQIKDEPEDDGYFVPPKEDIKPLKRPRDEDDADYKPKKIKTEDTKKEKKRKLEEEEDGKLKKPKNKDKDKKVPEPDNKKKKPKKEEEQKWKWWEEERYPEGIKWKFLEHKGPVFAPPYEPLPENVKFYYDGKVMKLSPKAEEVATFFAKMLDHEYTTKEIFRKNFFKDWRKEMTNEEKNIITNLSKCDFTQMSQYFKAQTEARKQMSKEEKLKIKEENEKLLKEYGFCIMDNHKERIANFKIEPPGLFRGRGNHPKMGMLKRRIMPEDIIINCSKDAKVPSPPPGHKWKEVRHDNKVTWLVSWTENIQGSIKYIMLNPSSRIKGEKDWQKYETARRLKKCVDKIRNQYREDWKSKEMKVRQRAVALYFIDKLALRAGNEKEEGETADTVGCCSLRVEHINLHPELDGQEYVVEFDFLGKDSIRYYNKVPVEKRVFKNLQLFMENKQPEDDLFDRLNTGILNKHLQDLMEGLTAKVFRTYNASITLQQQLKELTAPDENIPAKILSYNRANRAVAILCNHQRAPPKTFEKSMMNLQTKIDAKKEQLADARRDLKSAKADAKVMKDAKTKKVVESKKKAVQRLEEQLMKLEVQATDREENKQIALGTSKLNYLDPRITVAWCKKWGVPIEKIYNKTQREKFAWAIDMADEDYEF
Procedure: (§1) To investigate the inhibitory effect of our library compounds on the DNA relaxation activity of the recombinant Human and Leishmania topoisomerase 1 (Table 2), assays were performed involving supercoiled plasmid DNA, the enzymes (HTop1 and LdTop1) and our molecules. The enzymes were purified by the standard literature procedure.
(§2) The type I DNA topoisomerase are assayed by decreased mobility of the relaxed isomers of supercoiled pBS (SK^+) [pBlue-script (SK^+)] DNA in agarose gel. The relaxation assay was carried out as described previously with LdTop1B and HTop I, diluted in the relaxation buffer (25 mM Tris–HCl, pH 7.5, 5% glycerol, 0.5 mM DTT, 10 mM MgCl2, 50 mM KCl, […] and […] BSA) and supercoiled plasmid pBS (SK^+) DNA (85–95% were negatively supercoiled, with remainder being nicked circles)[9][28][29]. The reconstituted enzyme LdTop1B was assayed at 50 mM KCl concentration as described before. For all kinetic studies, the reaction mixtures containing the buffer and DNA were heated to 37 °C before addition of the enzymes. The reactions were rapidly quenched using stop solution and kept on ice. The gels were stained with ethidium bromide (EtBr) ([…]) and the amount of supercoiled monomer DNA band fluorescence were quantified by integration using Gel Doc 2000 under UV illumination (Bio-Rad Quantity One Software), as described previously.
The wild-type HTop1 (91 kDa) was purified from Sf-9 insect cells infected with the recombinant baculovirus (a kind gift from Prof. J. J. Champoux). Approximately, 1 * 10^9 Sf-9 cells were infected with the recombinant virus, and cells were harvested after 48-h of infection. The cells were lysed and enzyme was purified as described. Briefly, at 48 h post-infection, approximately 3 * 10^9 Sf-9 cells were harvested by centrifugation for 5 min at 400 * g. The cells were resuspended in 1 liter of ice-cold phosphate-buffered saline and centrifuged for 5 min at 400 * g. The nuclei were washed twice in 80 ml of lysis buffer minus Triton X-100 and resuspended in 40 ml of resuspension buffer (50 mM KCl, 10 mM Tris-Cl, pH 7.5, 2 mM MgCl2, 25 mM DTT, 0.4 mg/ml phenylmethylsulfonyl fluoride, 0.12 mg/ml aprotinin). The nuclear extract was stirred for 5 min at ~200 rpm. With continued stirring, 50 ml of polyethylene glycol (PEG) buffer (18% PEG 8000, 1 M NaCl, 10% glycerol) was added dropwise in order to precipitate the DNA. The PEG precipitate was pelleted by centrifugation and the resulting PEG supernatant was dialyzed against 4 liters of potassium phosphate buffer. The dialyzed PEG supernatant passed over a 10-ml bed volume of phosphocellulose (Whatman P11) equilibrated with PPB. The HTop1 flowed through the PS column and then passed over a Mono Q column followed by loaded onto a Mono S column. The Mono S column was eluted with a 25-ml 50–200 mM KPO4, pH 7.4, gradient. […] The peak Mono S fractions were pooled, concentrated with an Amicon ultrafiltration cell, dialyzed into storage buffer (50% glycerol, 10 mM Tris-hydrochloride, pH 7.5, 1 mM DTT, 1 mM EDTA), and stored at −20 °C.

[1] = biological target: Leishmania donovani Topoisomerase 1 (LdTop1) (Leishmania donovani, UniProt A0A3Q8IHS4+Q8WQM6); assay: Plasmid DNA relaxation assay, LdTop1 (simultaneous incubation); assay type: biochemical; details: plasmid DNA relaxation; averages of three experiments; read-out: LDTop1 inhibition (EC50)
Procedure: as §1
All the experiments were conducted thrice and representative data from once set of them are expressed as mean ± SD.
as §2
Cells harvested from 1 litre of culture were separately lysed by lysozyme/sonication, and the proteins were purified through Ni-NTA (Ni^2+-nitriloacetate-agarose column (Qiagen, Hilden, Germany) followed by a phospho-cellulose column (P11 cellulose; Whatman, Maidstone Kent, UK) as described previously. Finally, the purified proteins LdTOP1L and LdTOP1S were stored at −70 °C. The concentrations of each protein were quantified by using Bradford Reagent (PIERCE, Thermo Fisher Scientific Inc., Rockford, USA). Purified LdTOP1L was mixed with purified LdTOP1S at a molar ratio of 1:1 to a total protein concentration of 0.5 mg/ml in reconstitution buffer [50 mM potassium phosphate, pH 7.5, 0.5 mM DTT, 1 mM EDTA, 0.1 mM PMSF and 10% (v/v) glycerol]. The mixture was dialyzed overnight at 4 °C and dialyzed fractions were used for plasmid relaxation activity.

[2] = test system: L. donovani AG83 promastigotes; assay: MTT assay on extracellular promastigotes; assay type: cell-based; details: Leishmania donovani, 12 h, read-out: Anti-promastigote activity IC50
Procedure: Next, compound 4 was screened against extracellular promastigotes.
L. donovani AG83 promastigotes (3.0 × 10^6 cells/ml) are incubated with different concentrations of drugs/compounds under study (1, 2, 5, 10 and 20 μM) for 12 h, following which the survival percentage is estimated by MTT assay. Yellow MTT (3-(4,5-dimethylthiazol- 2-yl)-2,5-diphenyltetrazolium bromide, a tetrazole) is reduced to purple formazan in the mitochondria of living cells. The formazan is then solubilized, and the concentration is determined by optical density at 570 nm. Metabolically active cells convert MTT to formazan, thereby generating a quantitative measure of viability and cytotoxicity. Percentage of viable promastigotes in each treatment groups are determined with respect to untreated control cells.

Sequence of Leishmania donovani Topoisomerase 1 (LdTop1) (Q8WQM6 entry or part of it): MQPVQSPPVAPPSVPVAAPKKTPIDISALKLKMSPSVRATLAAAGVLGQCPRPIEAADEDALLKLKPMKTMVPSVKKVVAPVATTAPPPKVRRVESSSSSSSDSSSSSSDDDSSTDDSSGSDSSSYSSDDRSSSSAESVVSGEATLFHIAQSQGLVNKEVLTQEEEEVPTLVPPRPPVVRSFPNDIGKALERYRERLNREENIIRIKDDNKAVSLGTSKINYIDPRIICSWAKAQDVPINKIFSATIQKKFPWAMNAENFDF
Sequence of Leishmania donovani Topoisomerase 1 (LdTop1) (A0A3Q8IHS4 entry or part of it): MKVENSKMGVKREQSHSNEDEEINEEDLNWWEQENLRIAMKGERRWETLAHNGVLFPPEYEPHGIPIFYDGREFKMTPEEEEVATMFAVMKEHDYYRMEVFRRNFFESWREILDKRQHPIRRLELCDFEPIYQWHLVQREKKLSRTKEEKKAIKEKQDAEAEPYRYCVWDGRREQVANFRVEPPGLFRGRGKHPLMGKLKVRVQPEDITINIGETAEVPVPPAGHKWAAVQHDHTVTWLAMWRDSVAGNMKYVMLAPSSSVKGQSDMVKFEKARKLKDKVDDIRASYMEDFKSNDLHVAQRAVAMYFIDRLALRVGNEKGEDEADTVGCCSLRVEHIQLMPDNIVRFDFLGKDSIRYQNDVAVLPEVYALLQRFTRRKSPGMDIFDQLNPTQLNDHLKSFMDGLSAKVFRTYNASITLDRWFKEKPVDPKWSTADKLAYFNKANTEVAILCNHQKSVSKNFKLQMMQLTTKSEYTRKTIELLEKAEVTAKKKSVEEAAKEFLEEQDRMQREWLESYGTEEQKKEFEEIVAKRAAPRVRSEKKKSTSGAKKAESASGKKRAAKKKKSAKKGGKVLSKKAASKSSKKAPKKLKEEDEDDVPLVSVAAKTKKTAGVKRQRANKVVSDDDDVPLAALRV

Row | SMILES | EC50 (Human Top1 (HTop1)) [µM] | EC50 [1] [µM] | IC50 [2] [µM]
1 | Cc1cc2c(c(=O)[nH]1)C(=O)O/C2=C\c1ccccc1Br [Compound 20] | > 100 | > 100 | 
2 | Cc1cc2c(c(=O)[nH]1)C(=O)O/C2=C\c1ccccc1Cl [Compound 21] | > 100 | > 100 | 
3 | CCCCCCCCCCCCCCCCOP(=O)([O-])OCC[N+](C)(C)C [miltefosine, reference compound] |  |  | ~1
